Where two headings read alike, the source gives them in different places.
Target: T1, Gal4-HNF4α (human HNF4α LBD) (Homo sapiens, UniProt P41235)
T1 construct: uniprot entry: P41235-1, residues 142-377; expressed in transfected cells; host or cells: HEK293T
T1 sequence (P41235 142-377): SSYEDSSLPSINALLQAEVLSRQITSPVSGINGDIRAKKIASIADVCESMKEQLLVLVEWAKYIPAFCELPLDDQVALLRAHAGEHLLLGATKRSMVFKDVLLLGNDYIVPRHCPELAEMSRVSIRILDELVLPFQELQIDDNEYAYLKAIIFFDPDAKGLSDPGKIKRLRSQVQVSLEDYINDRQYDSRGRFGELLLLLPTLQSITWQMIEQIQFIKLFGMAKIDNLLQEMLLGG
Assay: Hybrid Gal4-HNF4α reporter gene assay in transiently transfected HEK293T cells
Type: cell-based

[1] = Table S1, primary screening, 50 µM

| Compound | HNF4a-screening_activity_(mean_of_n=2) [1] | HNF4a-screening_activity_(mean_of_n=2) |
| --- | --- | --- |
| c1nc(NC2CC2)c2nc[nH]c2n1 [Prestw-Frag-3360, C1CC1Nc1ncnc2[nH]cnc12] | 1.055 | – |
| CS(=O)(=O)NC(Cc1ccccc1)C(=O)O (stereo not shown) [Prestw-Frag-3362, CS(=O)(=O)NC(Cc1ccccc1)C(O)=O] | 1.241 | – |
| CNS(=O)(=O)CCc1ccccc1 [Prestw-Frag-3368, CNS(=O)(=O)CCc1ccccc1] | 1.162 | – |
| COC(=O)CN1CCc2sccc2C1 [Prestw-Frag-3371, COC(=O)CN1CCc2sccc2C1] | 1.101 | – |
| CCOC(=O)c1cccnc1 [Prestw-Frag-3382, CCOC(=O)c1cccnc1] | 1.112 | – |
| O=C(CCCN1CCNCC1)c1ccc(F)cc1 [Prestw-Frag-3426, Fc1ccc(cc1)C(=O)CCCN1CCNCC1] | 1.191 | – |
| CNCCN(C)C(c1ccccc1)c1ccccc1 [Prestw-Frag-3452, CNCCN(C)C(c1ccccc1)c1ccccc1] | 1.151 | – |
| COc1ccc(CCN)cc1OC [Prestw-Frag-3454, COc1ccc(CCN)cc1OC] | 1.113 | – |
| Oc1ccc(Cc2ccccc2)cc1 [Prestw-Frag-3455, Oc1ccc(Cc2ccccc2)cc1] | 0.7887 | – |
| O=C1CNCCN1 [Prestw-Frag-3458, O=C1CNCCN1] | 1.246 | – |
| O=C1CN(Cc2ccccc2)CCN1 [Prestw-Frag-3459, O=C1CN(Cc2ccccc2)CCN1] | 1.076 | – |
| CN1CCNCC1=O [Prestw-Frag-3460, CN1CCNCC1=O] | 1.233 | – |
| Cn1cc(CC(=O)O)c2ccccc21 [Prestw-Frag-3461, Cn1cc(CC(O)=O)c2ccccc12] | 1.168 | – |
| NC1CCc2ccccc21 (stereo not shown) [Prestw-Frag-3462, NC1CCc2ccccc12] | 1.151 | – |
| O=C1COCCN1 [Prestw-Frag-3463, O=C1COCCN1] | 1.252 | – |
| Cn1ccc(=O)[nH]1 [Prestw-Frag-3664, Cn1ccc(=O)[nH]1] | 1.182 | – |
| O=C1Cc2cc(F)ccc2N1 [Prestw-Frag-3667, Fc1ccc2NC(=O)Cc2c1] | 0.8142 | – |
| O=C(O)CC1CCCCC1 [Prestw-Frag-3668, OC(=O)CC1CCCCC1] | 0.9215 | – |
| C#Cc1cccc(N)c1 [Prestw-Frag-3669, Nc1cccc(c1)C#C] | 1.159 | – |
| CN1CCN(c2ccc(N)cc2)CC1 [Prestw-Frag-3670, CN1CCN(CC1)c1ccc(N)cc1] | 1.015 | – |
| CCN1CCCC1CN (stereo not shown) [Prestw-Frag-3671, CCN1CCCC1CN] | 1.171 | – |
| Fc1ccc(CN2CCNCC2)cc1 [Prestw-Frag-3673, Fc1ccc(CN2CCNCC2)cc1] | 1.124 | – |
| O=C(c1ccccc1)N1CCNCC1 [Prestw-Frag-3677, O=C(N1CCNCC1)c1ccccc1] | 0.9693 | – |
| COc1ccc2[nH]cnc2c1 [Prestw-Frag-3678, COc1ccc2[nH]cnc2c1] | 0.9895 | – |
| Nc1cnc2ccccc2n1 [Prestw-Frag-3679, Nc1cnc2ccccc2n1] | 0.8882 | – |
| O=C1CC2(CCCC2)CC(=O)N1 [Prestw-Frag-3680, O=C1CC2(CCCC2)CC(=O)N1] | 0.8965 | – |

| Compound | HNF4a-screening_activity_(mean_of_n=2) [1] | HNF4a-screening_activity_(mean_of_n=2) |
| --- | --- | --- |
| Nc1ccc2c(c1)CCCC2 [Prestw-Frag-3682, Nc1ccc2CCCCc2c1] | 0.958 | – |
| CC(=O)c1ccc2c(c1)OCO2 [Prestw-Frag-3686, CC(=O)c1ccc2OCOc2c1] | 0.9343 | – |
| NCc1ncc[nH]1 [Prestw-Frag-3689, NCc1ncc[nH]1] | 0.8561 | – |
| CNC(=O)c1c(-c2ccccc2)noc1C [Prestw-Frag-3690, CNC(=O)c1c(C)onc1-c1ccccc1] | 0.8222 | – |
| CN1CCN(CCCC(=O)c2ccc(F)cc2)CC1 [Prestw-Frag-3692, CN1CCN(CCCC(=O)c2ccc(F)cc2)CC1] | 1.385 | – |
| CN(C)CCCC(=O)c1ccc(F)cc1 [Prestw-Frag-3693, CN(C)CCCC(=O)c1ccc(F)cc1] | 1.093 | – |
| Oc1cccc2[nH]ccc12 [Prestw-Frag-3696, Oc1cccc2[nH]ccc12] | 0.9739 | – |
| COc1cc2c(cc1OC)CC(=O)NCC2 [Prestw-Frag-3698, COc1cc2CCNC(=O)Cc2cc1OC] | 1.019 | – |
| O=C1COc2cc(O)ccc21 [Prestw-Frag-3703, Oc1ccc2C(=O)COc2c1] | 1.217 | – |
| CNC(=O)c1c(OC)ccc(Br)c1OC [Prestw-Frag-3704, CNC(=O)c1c(OC)ccc(Br)c1OC] | 1.072 | – |
| c1ccc(C2COCCN2)cc1 (stereo not shown) [Prestw-Frag-3705, C1COCC(N1)c1ccccc1] | – | 0.9945 |
| CC(C(=O)O)c1cccc(F)c1 (stereo not shown) [Prestw-Frag-3706, CC(C(O)=O)c1cccc(F)c1] | 1.072 | – |
| NC1CCc2[nH]c3ccccc3c2C1 (stereo not shown) [Prestw-Frag-3709, NC1CCc2[nH]c3ccccc3c2C1] | 1.209 | – |
| O=C(O)C(c1ccccc1)c1ccccc1 [Prestw-Frag-3711, OC(=O)C(c1ccccc1)c1ccccc1] | 1.082 | – |
| c1ccc(C2CCCNCC2)cc1 (stereo not shown) [Prestw-Frag-3712, C1CNCCC(C1)c1ccccc1] | 1.122 | – |
| Oc1ccc2c(c1)CCC2 [Prestw-Frag-3713, Oc1ccc2CCCc2c1] | 1.011 | – |
| NC1CCC(=O)NC1=O (stereo not shown) [Prestw-Frag-3716, NC1CCC(=O)NC1=O] | 1.139 | – |
| CC(O)(C(=O)O)c1ccccc1 (stereo not shown) [Prestw-Frag-3717, CC(O)(C(O)=O)c1ccccc1] | 1.037 | – |
| O=C1CNCN1 [Prestw-Frag-3718, O=C1CNCN1] | 1.053 | – |
| c1cncc(CN2CCNCC2)c1 [Prestw-Frag-3722, C(N1CCNCC1)c1cccnc1] | 0.9979 | – |
| NC(=O)N1CCNCC1 [Prestw-Frag-3723, NC(=O)N1CCNCC1] | 1.067 | – |
| Cc1n[nH]c(C)c1N [Prestw-Frag-3724, Cc1n[nH]c(C)c1N] | 0.9198 | – |
| FC(F)(F)c1cc[nH]n1 [Prestw-Frag-3726, FC(F)(F)c1cc[nH]n1] | 0.9056 | – |
| OCC1CCNCC1 [Prestw-Frag-3727, OCC1CCNCC1] | 0.8559 | – |
| OCC1CCCNC1 (stereo not shown) [Prestw-Frag-3728, OCC1CCCNC1] | 1.103 | – |
| c1cc(N2CCNCC2)ncn1 [Prestw-Frag-3729, C1CN(CCN1)c1ccncn1] | 1.017 | – |

| Compound | HNF4a-screening_activity_(mean_of_n=2) [1] | HNF4a-screening_activity_(mean_of_n=2) |
| --- | --- | --- |
| N#CCC(=O)N1CCCCC1 [Prestw-Frag-3730, O=C(CC#N)N1CCCCC1] | 0.9277 | – |
| CCN(CC)C(=O)CC#N [Prestw-Frag-3731, CCN(CC)C(=O)CC#N] | 0.9542 | – |
| c1ccc2c(c1)NCCO2 [Prestw-Frag-3732, C1COc2ccccc2N1] | 1.144 | – |
| CC(C)(CN)c1ccccc1 [Prestw-Frag-3733, CC(C)(CN)c1ccccc1] | 1.132 | – |
| O=c1[nH]cncc1-c1ccccc1 [Prestw-Frag-3734, O=c1[nH]cncc1-c1ccccc1] | 1.236 | – |
| Oc1ccccc1N1CCNCC1 [Prestw-Frag-3738, Oc1ccccc1N1CCNCC1] | 0.9708 | – |
| COc1ccc2c(c1)CCC(C(=O)O)C2 (stereo not shown) [Prestw-Frag-3739, COc1ccc2CC(CCc2c1)C(O)=O] | 0.6963 | – |
| Cn1c(N)nc2ccccc21 [Prestw-Frag-3740, Cn1c(N)nc2ccccc12] | 1.19 | – |
| OCc1ccc2c(c1)OCO2 [Prestw-Frag-3741, OCc1ccc2OCOc2c1] | 1.114 | – |
| Cc1cc(=O)n(-c2ccccc2)[nH]1 [Prestw-Frag-3742, Cc1cc(=O)n([nH]1)-c1ccccc1] | 0.8727 | – |
| Cc1nc(-c2ccccc2)cs1 [Prestw-Frag-3743, Cc1nc(cs1)-c1ccccc1] | 1.125 | – |
| c1ccc(-n2ccnc2)cc1 [Prestw-Frag-3744, c1cn(cn1)-c1ccccc1] | 1.014 | – |
| Cc1nc(-c2ccccc2F)cs1 [Prestw-Frag-3745, Cc1nc(cs1)-c1ccccc1F] | 1.103 | – |
| NCCc1ccc(F)cc1F [Prestw-Frag-3746, NCCc1ccc(F)cc1F] | 1.162 | – |
| NCc1cscn1 [Prestw-Frag-3747, NCc1cscn1] | 0.9617 | – |
| NCCOCc1ccccc1 [Prestw-Frag-3749, NCCOCc1ccccc1] | 0.8708 | – |
| c1ccc2c(c1)CCNCC2 [Prestw-Frag-3750, C1Cc2ccccc2CCN1] | 1.099 | – |
| NCC1(c2ccccc2)CC1 [Prestw-Frag-3751, NCC1(CC1)c1ccccc1] | 0.9761 | – |
| Cc1[nH]cnc1CO [Prestw-Frag-3752, Cc1[nH]cnc1CO] | 1.105 | – |
| c1nc(C2CCNCC2)c[nH]1 [Prestw-Frag-3753, C1CC(CCN1)c1c[nH]cn1] | 0.9547 | – |
| CNC(=O)c1cc(Cl)c(N)cc1OC [Prestw-Frag-3754, CNC(=O)c1cc(Cl)c(N)cc1OC] | 1.064 | – |
| CC(CO)Nc1ccccc1 (stereo not shown) [Prestw-Frag-3755, CC(CO)Nc1ccccc1] | 0.8925 | – |
| CC(=O)C1CCNCC1 [Prestw-Frag-3756, CC(=O)C1CCNCC1] | 0.9377 | – |
| CC1CCC(=O)O1 (stereo not shown) [Prestw-Frag-3757, CC1CCC(=O)O1] | 1.285 | – |

— PMC7660650, “Chemical Starting Matter for HNF4α Ligand Discovery and Chemogenomics” (International Journal of Molecular Sciences, 2020)
